From patent US20230165252A1, “ACTIVE COMPOUND COMBINATIONS” (Bayer Aktiengesellschaft, priority 2020, published 2023) come the findings set out here.

Read-outs that look alike come from different tables or passages of the source.

Format in all cases: cell-based
Assay [1] concerns Colletotrichum lindemuthianum. In words: in vitro-Test with Colletotrichum lindemuthianum (microtiter growth inhibition). On the procedure:
(§1) The degree of efficacy expressed in % is denoted: 0% means an efficacy, which corresponds to that of the control, while an efficacy of 100% means that no disease is observed.
(§2) If the actual fungicidal activity exceeds the calculated value, then the activity of the combination is super-additive, i.e. a synergistic effect exists. In this case, the efficacy, which was actually observed, must be greater than the value for the expected efficacy (E), that was calculated from the abovementioned formula.
(§3) Example: In Vitro-Test with Fungal Microorganisms
(§4) Wells of 96-well microtiter plates are filled with 10 μl of a preparation of test compound or compound combination in methanol+emulsifier alkylaryl-polyglycol-ether. Thereafter, the solvent is evaporated in a hood. At the next step, 100 μl of liquid potato dextrose medium is given into each well, that has been amended with an appropriate concentration of spores or mycelium suspension of the test fungus.
(§5) With the aid of a photometer, the extinction in all wells is measured at the wavelength of 620 nm.
(§6) The microtiter plates are incubated at 20° C. and 85% relative humidity. The inhibition of growth is determined again photometrically 3-5 days after the application. Efficacy is calculated in relation to the untreated control, 0% efficacy means fungal growth as high as in untreated control while 100% efficacy means no fungal growth is measured.

Another assay concerns Parastagonospora nodorum. In words: in vitro-Test with Parastagonospora nodorum (microtiter growth inhibition). On the procedure: as §1, §2, §3, §4, §5, §6
A further assay relates to Botrytis cinerea. In words: in vitro-Test with Botrytis cinerea (microtiter growth inhibition). To be noted: for inhibition of growth at 0.04 ppm: single active at 0.04 ppm; for inhibition of growth at 0.2 ppm: single active at 0.2 ppm; for Efficacy: applied alone. The method in brief:
(§7)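 Test compound or combination in methanol plus alkylaryl-polyglycol-ether emulsifier was dried into microtiter wells, then overlaid with liquid potato dextrose medium seeded with spores or mycelium. Plates were held at 20° C. and 85% relative humidity, and growth was read photometrically at 620 nm after 3-5 days. Efficacy is relative to untreated control.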

The next assay has as its system Fusarium culmorum. Nature of the assay: in vitro-Test with Fusarium culmorum (microtiter growth inhibition). The note with it: Fusarium culmorum, read-out: Efficacy. The method, then: as §1, §2, §3, §4, §5, §6
Another assay concerns Cercospora beticola. In words: in vitro-Test with Cercospora beticola (microtiter growth inhibition). To be noted: Cercospora beticola. The method in brief:
as §7

For assay [2], the system named is Ustilago segetum var. avenae. In words: in vitro-Test with Ustilago segetum var. avenae (microtiter growth inhibition). To be noted: read-out: Efficacy %. The method in brief: as §7
A further assay has as its system Cordana musae. Nature of the assay: in vitro-Test with Cordana musae (microtiter growth inhibition). To be noted: Neocordana musae. The method in brief:
as §7

For a further assay, the system named is Diaporthe citri. In words: in vitro-Test with Diaporthe citri (microtiter growth inhibition). The note with it: Diaporthe citri, read-out: Efficacy. The method in brief: as §7
For a further assay, the system named is Alternaria alternate. Nature of the assay: in vitro-Test with Alternaria alternate (microtiter growth inhibition). The method in brief: as §7
Setting [3] is: Botrytis cinerea, read-out: Efficacy %.
Where [4] appears, read: Colletotrichum lindemuthianum, read-out: Efficacy %.
Setting [5] is: Parastagonospora nodorum, read-out: Efficacy %.

With `OC(Cc1ccccc1Cl)(Cn1nc[nH]c1=S)C1(Cl)CC1` (centres unmarked) [(1.018) prothioconazole], the inhibition of growth at 0.2 ppm was 73% in assay [1] (Colletotrichum lindemuthianum, applied alone at 0.2 ppm, read-out: Efficacy %); 99% in the assay on Parastagonospora nodorum (Parastagonospora nodorum, compound alone, 0.2 ppm, read-out: Efficacy %); 100% with Botrytis cinerea (setting [3]). Also, in the assay on Parastagonospora nodorum (Parastagonospora nodorum, compound alone, 0.008 ppm, read-out: Efficacy %), the inhibition of growth at 0.008 ppm is 28%. Moreover, the inhibition of growth at 0.04 ppm with Parastagonospora nodorum (Parastagonospora nodorum, compound alone, 0.04 ppm, read-out: Efficacy %) was found to be 91%; with Botrytis cinerea (setting [3]), 63%. Besides, the inhibition of growth at 1 ppm with Parastagonospora nodorum (Parastagonospora nodorum, compound alone, 1.0 ppm, read-out: Efficacy %) was 100%. Further, the Efficacy % in the assay with Parastagonospora nodorum (compound alone, 0.2 ppm) turned out to be 99%.

As to `N#Cc1ccccc1NC(=O)c1snc(Cl)c1Cl` [(6.002) isotianil], the Efficacy % in assay [1] (applied alone at 0.8 ppm) came to 7%; in [1] (applied alone at 4 ppm) it was 19%; in assay [1] (applied alone at 20 ppm), 0%; in assay [1] (applied alone at 100 ppm), 17%; with Botrytis cinerea (single active at 4 ppm) it was 0%; in the assay on Botrytis cinerea (single active at 20 ppm), 0%. Besides, in the assay on Botrytis cinerea (single active at 100 ppm), the Efficacy % stood at 0%.

`N#Cc1c[nH]cc1-c1cccc2c1OC(F)(F)O2` [(13.001) fludioxonil]: the inhibition of growth at 0.04 ppm in [1] (setting [4]) came out at 8%. Also, the inhibition of growth at 0.2 ppm in [1] (setting [4]) was found to be 68%. Besides, the inhibition of growth at 1 ppm came to 81% in assay [1] (setting [4]) and 34% in the assay with Parastagonospora nodorum (setting [5]). Further, the inhibition of growth at 5 ppm in assay [1] (setting [4]) amounted to 44%; with Parastagonospora nodorum (setting [5]), 75%. The Efficacy % in assay [1] (applied alone at 0.2 ppm) is listed as 60%; in the assay with Parastagonospora nodorum (compound alone, 0.04 ppm) it was 0%; with Parastagonospora nodorum (compound alone, 0.2 ppm), 0%.

Regarding `CCO[PH](=O)[O-].CCO[PH](=O)[O-].CCO[PH](=O)[O-].[Al+3]` [(15.012) fosetylaluminium], the Efficacy % in assay [1] (applied alone at 4 ppm) was determined as 0%; in [1] (applied alone at 20 ppm), 22%; in assay [1] (applied alone at 100 ppm), 70%.

For `CCN(C)C=Nc1cc(C)c(Oc2ccccc2F)cc1Cl` [Compound 15.064, N′-[2-chloro-4-(2-fluorophenoxy)-5-methylphenyl]-N-ethyl-N-methylimidoformamide], the inhibition of growth at 0.4 ppm in the assay on Fusarium culmorum is 0%; in the assay with Cercospora beticola (alone, 0.4 ppm, read-out: Efficacy %), 0%; in assay [2] (compound alone), 0%; in [2] (single compound), 2%; with Cordana musae (single substance, 0.4 ppm, read-out: Efficacy) it was 18%; in the assay on Diaporthe citri (applied alone, 0.4 ppm) it was 2%. For the same compound, the inhibition of growth at 2 ppm with Fusarium culmorum stood at 1%; in [2] (compound alone), 41%; in assay [2] (single compound), 68%; in the assay with Cordana musae (single substance, 2 ppm, read-out: Efficacy), 14%; in the assay on Diaporthe citri (applied alone, 2 ppm), 5%. Also, the inhibition of growth at 10 ppm turned out to be 9% with Fusarium culmorum; 14% in the assay with Cercospora beticola (alone, 10 ppm, read-out: Efficacy %); 100% in assay [2] (compound alone); 100% in assay [2] (single compound); 5% with Cordana musae (single substance, 10 ppm, read-out: Efficacy). Besides, the inhibition of growth at 0.08 ppm with Cercospora beticola (alone, 0.08 ppm, read-out: Efficacy %) worked out at 0%; in assay [2] (single compound, 0.08 ppm), 1%; with Cordana musae (single substance, 0.080 ppm, read-out: Efficacy), 0%; in the assay with Diaporthe citri (applied alone, 0.080 ppm), 11%. In addition, the inhibition of growth at 0.04 ppm in the assay with Botrytis cinerea (setting [3]) turned out to be 0%. In addition, in the assay on Botrytis cinerea (setting [3]), the inhibition of growth at 0.2 ppm turned out to be 100%. The inhibition of growth at 1 ppm in the assay with Botrytis cinerea (Botrytis cinerea, single active at 1.0 ppm, read-out: Efficacy %) is 100%. Also, the inhibition of growth at 5 ppm with Botrytis cinerea (Botrytis cinerea, single active at 5.0 ppm, read-out: Efficacy %) came to 100%. Besides, the Efficacy is recorded as 0% with Botrytis cinerea (0.080 ppm), 0% in the assay with Botrytis cinerea (0.4 ppm) and 31% with Botrytis cinerea (2 ppm).

As for `N#Cc1c[nH]cc1-c1cccc2c1OC(F)(F)O2` [fludioxonil], the inhibition of growth at 0.04 ppm with Fusarium culmorum was found to be 0%; in the assay with Alternaria alternate (Alternaria, read-out: Efficacy %, 0.04 ppm, alone), 0%; with Alternaria alternate (Alternaria, read-out: Efficacy, applied alone, 0.04 ppm) it was 0%; in [2], 10%; in the assay on Diaporthe citri it was 12%. Besides, the inhibition of growth at 0.08 ppm with Fusarium culmorum (0.08 ppm) was 1%. Also, the inhibition of growth at 0.2 ppm in the assay with Fusarium culmorum (0.2 ppm) was found to be 0%; in the assay with Alternaria alternate (Alternaria, read-out: Efficacy %, 0.2 ppm, alone), 0%; in the assay on Alternaria alternate (Alternaria, read-out: Efficacy, applied alone, 0.2 ppm), 0%; in [2], 60%; with Diaporthe citri, 0%. Moreover, the inhibition of growth at 0.4 ppm in the assay on Fusarium culmorum was 1%. Moreover, the inhibition of growth at 1 ppm with Fusarium culmorum came out at 91%; with Alternaria alternate (Alternaria, read-out: Efficacy %, 1.0 ppm, alone) it was 87%; with Alternaria alternate (Alternaria, read-out: Efficacy, applied alone, 1.0 ppm), 96%; in [2] it was 100%; in the assay on Cordana musae (read-out: Efficacy, single substance, 1.0 ppm), 20%; in the assay with Diaporthe citri it was 45%. For the same compound, in the assay with Fusarium culmorum, the inhibition of growth at 2 ppm came to 2%. Further, the inhibition of growth at 5 ppm in the assay with Fusarium culmorum (5.0 ppm) was 100%; with Alternaria alternate (Alternaria, read-out: Efficacy %, 5.0 ppm, alone), 100%; with Alternaria alternate (Alternaria, read-out: Efficacy, applied alone, 5.0 ppm) it was 100%; with Cercospora beticola (read-out: Efficacy %, alone, 5.0 ppm), 95%; in [2] it was 100%; with Cordana musae (read-out: Efficacy, single substance, 5.0 ppm), 44%. The inhibition of growth at 5 ppm in the assay with Diaporthe citri turned out to be 10%. In addition, the inhibition of growth at 10 ppm in the assay on Fusarium culmorum was 11%. The Efficacy came to 12% with Botrytis cinerea (0.04 ppm), 99% with Botrytis cinerea (0.2 ppm), 100% in the assay on Botrytis cinerea (1.0 ppm) and 100% in the assay on Botrytis cinerea (5.0 ppm).

For the compound `CON=C(C(=O)OC)c1ccccc1CON=C(C)c1cccc(C(F)(F)F)c1` [trifloxystrobin], the inhibition of growth at 0.008 ppm in the assay with Fusarium culmorum (0.008 ppm) turned out to be 0%; with Alternaria alternate (Alternaria, 0.008 ppm, alone, read-out: Efficacy %), 56%; in the assay on Cercospora beticola (alone, 0.008 ppm, read-out: Efficacy %), 98%; in assay [2] (single compound, 0.008 ppm), 16%; in the assay on Cordana musae (single substance, 0.008 ppm, read-out: Efficacy) it was 29%; with Diaporthe citri (applied alone, 0.008 ppm), 82%. Also, the inhibition of growth at 0.04 ppm in the assay on Fusarium culmorum was found to be 0%; in the assay with Alternaria alternate (Alternaria, 0.04 ppm, alone, read-out: Efficacy %) it was 84%; in the assay on Alternaria alternate (Alternaria, applied alone, 0.04 ppm, read-out: Efficacy), 82%; in [2] (single compound, 0.04 ppm) it was 40%; in the assay with Diaporthe citri (applied alone, 0.04 ppm) it was 94%. Moreover, the inhibition of growth at 1 ppm in the assay with Fusarium culmorum is 11%; in the assay on Alternaria alternate (Alternaria, 1.0 ppm, alone, read-out: Efficacy %), 98%; in the assay on Diaporthe citri (applied alone, 1.0 ppm), 98%. The inhibition of growth at 0.2 ppm came out at 90% with Alternaria alternate (Alternaria, 0.2 ppm, alone, read-out: Efficacy %); 87% with Alternaria alternate (Alternaria, applied alone, 0.2 ppm, read-out: Efficacy); 95% in the assay with Cercospora beticola (alone, 0.2 ppm, read-out: Efficacy %); 53% in [2] (single compound, 0.2 ppm); 66% in the assay on Cordana musae (single substance, 0.2 ppm, read-out: Efficacy); 97% in the assay on Diaporthe citri (applied alone, 0.2 ppm). Further, the Efficacy is 51% in the assay with Alternaria alternate (applied alone, 0.008 ppm); 38% in the assay on Parastagonospora nodorum (0.008 ppm); 63% with Parastagonospora nodorum (0.04 ppm); 78% in the assay with Parastagonospora nodorum (0.2 ppm); 79% with Parastagonospora nodorum (1.0 ppm).
